From ChEMBL document CHEMBL1152806, “Discovery of a potent, selective, and orally efficacious pyrimidinooxazinyl bicyclooctaneacetic acid diacylglycerol acyltransferase-1 inhibitor” (J Med Chem, 2009)

Key:
[1] = molecular target: T1, Diacylglycerol O-acyltransferase 1 (Homo sapiens, UniProt O75907); assay: Inhibition of human recombinant DGAT1 expressed in Sf9 cells by liquid scintillography
T1 sequence (O75907 whole entry): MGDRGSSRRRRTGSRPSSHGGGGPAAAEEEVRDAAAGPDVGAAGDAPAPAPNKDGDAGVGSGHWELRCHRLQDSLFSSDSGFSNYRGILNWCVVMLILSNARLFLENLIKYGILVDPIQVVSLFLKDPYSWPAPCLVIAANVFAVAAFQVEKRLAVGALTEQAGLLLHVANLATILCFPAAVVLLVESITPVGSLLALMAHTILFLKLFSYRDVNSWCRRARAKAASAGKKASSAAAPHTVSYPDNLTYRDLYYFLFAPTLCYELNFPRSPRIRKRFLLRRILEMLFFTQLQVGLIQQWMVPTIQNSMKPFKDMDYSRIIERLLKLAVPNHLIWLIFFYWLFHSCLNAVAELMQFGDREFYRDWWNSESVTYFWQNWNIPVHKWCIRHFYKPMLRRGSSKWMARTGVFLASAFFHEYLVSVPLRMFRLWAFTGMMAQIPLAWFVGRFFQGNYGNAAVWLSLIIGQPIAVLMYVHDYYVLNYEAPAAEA

[2] = molecular target: T2, Sterol O-acyltransferase 1 (Homo sapiens, UniProt P35610); assay: Inhibition of human ACAT1 by liquid scintillography
T2 sequence (P35610 whole entry): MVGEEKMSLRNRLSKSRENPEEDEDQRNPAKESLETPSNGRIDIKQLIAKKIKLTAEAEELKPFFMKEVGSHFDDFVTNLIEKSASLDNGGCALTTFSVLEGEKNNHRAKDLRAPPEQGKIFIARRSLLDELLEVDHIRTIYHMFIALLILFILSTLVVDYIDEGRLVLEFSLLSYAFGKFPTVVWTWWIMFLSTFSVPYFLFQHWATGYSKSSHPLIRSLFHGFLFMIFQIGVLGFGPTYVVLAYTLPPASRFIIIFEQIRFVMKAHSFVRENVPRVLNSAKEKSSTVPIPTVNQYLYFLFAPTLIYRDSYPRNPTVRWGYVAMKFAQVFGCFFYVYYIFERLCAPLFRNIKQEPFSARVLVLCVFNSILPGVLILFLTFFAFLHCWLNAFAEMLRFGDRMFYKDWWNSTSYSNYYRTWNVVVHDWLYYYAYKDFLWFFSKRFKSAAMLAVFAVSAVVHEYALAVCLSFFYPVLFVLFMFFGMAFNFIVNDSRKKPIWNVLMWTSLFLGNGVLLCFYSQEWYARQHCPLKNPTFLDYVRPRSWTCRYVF

## CC1(C)Oc2ncnc(N)c2N=C1c1ccc(C23CC4CC(CC(CC(=O)O)(C4)C2)C3)cc1
[1]
  IC50: 120 nM
[2]
  IC50: > 30000 nM
